Among the data in PubChem BioAssay (NCI) are TGI values, retold here.

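Where inhibition never reached the appropriate level, the endpoint shown equals the highest concentration tested. Otherwise, values were interpolated linearly from a five-concentration, 48-hour dose response in 96-well plates. Definition used: TGI = concentration required for complete inhibition of growth.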 A value given as a limit tells only on which side of the number the result lay.

Test systems include NCI-H226 lung; UACC-257 melanoma; OVCAR-8 ovarian; NCI-H522 lung; MCF7 breast; UACC-62 melanoma; BT-549 breast.
Common to all, as to assay: NCI tumour cell line growth inhibition, 48 h

As for `Cc1cn([C@@H]2O[C@H](CO[Si](C)(C)C(C)(C)C)[C@]3(O[C@H]3C(=O)NN)[C@H]2O[Si](C)(C)C(C)(C)C)c(=O)[nH]c1=O`, the TGI in the test on NCI-H226 lung was 27.6 µM; with UACC-257 melanoma, 27.6 µM; in the test on OVCAR-8 ovarian it was 19.8 µM; with NCI-H522 lung it was 5.47 µM; in the test on MCF7 breast, 15.1 µM; with UACC-62 melanoma, 24 µM. Also, the TGI in the test with BT-549 breast stood at 13.9 µM.

For `CC1=Nc2sc3c(c2C2=NCCN12)CCCC3`, the TGI stood at 31.2 µM in the test with NCI-H226 lung; 48.5 µM with UACC-257 melanoma; 50.6 µM in the test on OVCAR-8 ovarian; 41 µM in the test on NCI-H522 lung; 48.1 µM in the test with MCF7 breast; 32 µM in the test with UACC-62 melanoma. Moreover, the TGI in the test with BT-549 breast is 43.4 µM.

Take `CC1=C(C(=O)c2ccccc2)C23C(=O)N(c4ccccc4)C(=O)C2=C(O)C=CC3(O)N1` (centres undefined): the TGI in the test with NCI-H226 lung is greater than 100 µM; in the test with UACC-257 melanoma, greater than 100 µM; with OVCAR-8 ovarian, 98.9 µM; with NCI-H522 lung it was 28.9 µM; in the test on MCF7 breast, greater than 100 µM; in the test on UACC-62 melanoma it was 48 µM. The same compound gave a TGI in the test with BT-549 breast of 49.2 µM.

For `COc1ccc(C2C3COc4ccccc4C3=NN2c2ccccc2)cc1` (centres undefined), the TGI with NCI-H226 lung, with UACC-257 melanoma, in the test on OVCAR-8 ovarian, in the test with NCI-H522 lung, with MCF7 breast and with UACC-62 melanoma was greater than 100 µM in each case. Further, in the test with BT-549 breast, the TGI is greater than 100 µM.

On to `O=C(O)/C(Cc1ccc([N+](=O)[O-])cc1)=N\O`, for which the TGI with NCI-H226 lung, in the test with UACC-257 melanoma, in the test with OVCAR-8 ovarian, in the test with NCI-H522 lung, with MCF7 breast and with UACC-62 melanoma was greater than 100 µM each time. The compound also came in with a TGI in the test on BT-549 breast greater than 100 µM.

In the case of `O=C(N/N=C(/COc1ccc([N+](=O)[O-])cc1)N=Cc1ccncc1)c1ccncc1`, the TGI in the test on NCI-H226 lung, with UACC-257 melanoma, in the test with OVCAR-8 ovarian, in the test with NCI-H522 lung, in the test with MCF7 breast and in the test with UACC-62 melanoma was greater than 100 µM throughout. This compound also showed a TGI in the test with BT-549 breast greater than 100 µM.

For `O=C1OC(=O)c2cc(S(=O)(=O)c3ccc4c(c3)C(=O)OC4=O)ccc21`, the TGI with NCI-H226 lung, in the test with UACC-257 melanoma, in the test on OVCAR-8 ovarian, with NCI-H522 lung, in the test on MCF7 breast and in the test with UACC-62 melanoma was greater than 100 µM throughout. The compound also showed a TGI in the test with BT-549 breast greater than 100 µM.

`O=C(Cc1ccccc1)Nn1c(-c2ccccc2)nc2ccccc2c1=O`: the TGI in the test on NCI-H226 lung, with UACC-257 melanoma, in the test on OVCAR-8 ovarian, in the test on NCI-H522 lung, with MCF7 breast and in the test on UACC-62 melanoma was greater than 100 µM throughout. The same compound registered a TGI in the test on BT-549 breast greater than 100 µM.

For the compound `C=C1C(=O)O[C@@H]2C[C@]3(C)CC[C@]4(C)[C@H](CC[C@@H]5[C@@]6(C)CCC(=O)C(C)(C)[C@@H]6CC[C@]54C)[C@H]3[C@H]12`, the TGI worked out at 38.4 µM in the test with NCI-H226 lung; 32.8 µM in the test with UACC-257 melanoma; 38.7 µM in the test with OVCAR-8 ovarian; 23.2 µM in the test with NCI-H522 lung; 21.4 µM in the test with MCF7 breast; 32.9 µM in the test on UACC-62 melanoma. In addition, the TGI in the test on BT-549 breast was determined as 37.4 µM.

As to `O=C(N/N=C1/C(=O)c2c3ccccc3cc3cccc1c23)c1ccccc1`, the TGI is greater than 66.6 µM in the test on NCI-H226 lung; greater than 100 µM with UACC-257 melanoma; greater than 92.3 µM in the test on OVCAR-8 ovarian; greater than 100 µM in the test on NCI-H522 lung; greater than 77.1 µM in the test with MCF7 breast; greater than 78.1 µM with UACC-62 melanoma. The compound further displayed a TGI in the test on BT-549 breast greater than 100 µM.

Turning to `Cc1csc(/N=C\c2c(O)c3ccccc3oc2=O)n1`, the TGI in the test on NCI-H226 lung, with UACC-257 melanoma, with OVCAR-8 ovarian, in the test on NCI-H522 lung, in the test with MCF7 breast and in the test on UACC-62 melanoma was greater than 100 µM each time. For the same compound, in the test on BT-549 breast, the TGI is greater than 100 µM.

Turning to `O=C(O)Cc1ccc2[nH]c(O)c(C3=Nc4ccccc4C3=O)c2c1`, the TGI was greater than 100 µM in the test on NCI-H226 lung; greater than 100 µM in the test with UACC-257 melanoma; greater than 100 µM with OVCAR-8 ovarian; greater than 100 µM in the test on NCI-H522 lung; 36.1 µM in the test with MCF7 breast; 85.7 µM in the test on UACC-62 melanoma. The compound also showed a TGI with BT-549 breast greater than 100 µM.

For the compound `C/C=C/C1OC(O)(C(C)C(O)[C@H](C)C2OC(=O)/C(OC)=C/C(C)=C/[C@@H](C)[C@@H](O)[C@@H](C)C(O)C(C)C/C(C)=C/C=C/C2OC)C[C@@H](OC2CC(O)C(OC(N)=O)C(C)O2)C1C` (some centres undefined), the TGI in the test with NCI-H226 lung is 6.97 µM; in the test on UACC-257 melanoma, less than 0.01 µM; in the test with OVCAR-8 ovarian, 15.7 µM; in the test on NCI-H522 lung, less than 0.01 µM; with MCF7 breast, 7.65 µM; in the test on UACC-62 melanoma, less than 0.01 µM. The TGI in the test with BT-549 breast was found to be 12 µM.

Regarding `CC(C)C(/C=C/c1ccc(Cl)c(Cl)c1)=N\NC(=O)N/N=C(/C=C/c1ccc(Cl)c(Cl)c1)C(C)C`, the TGI with NCI-H226 lung, in the test on UACC-257 melanoma, in the test on OVCAR-8 ovarian, in the test with NCI-H522 lung, in the test with MCF7 breast and in the test on UACC-62 melanoma was greater than 100 µM throughout. Moreover, the TGI with BT-549 breast is greater than 100 µM.

Take `CC[C@H]1C=CCC[C@@]2(C[C@@H]3CC[C@H]4[C@@H](C(=O)OCCCCCCCCCCCCCCCC(=O)N(CCCN)C[C@@H](O)CCN)[C@@]5(CCC[C@@H](C)O5)NC(=[N+]34)N2)O1`: the TGI with NCI-H226 lung is 3.32 µM; in the test with UACC-257 melanoma, 3.41 µM; with OVCAR-8 ovarian, 4.93 µM; in the test on NCI-H522 lung, 3.07 µM; with MCF7 breast, 3.16 µM; in the test on UACC-62 melanoma, 3.5 µM. Moreover, the TGI in the test with BT-549 breast is 4.41 µM.

For the compound `CC1(C)C2CC(=O)C1(C)C(OCc1ccccc1)C2` (centres undefined), the TGI is greater than 100 µM with NCI-H226 lung; greater than 100 µM in the test with UACC-257 melanoma; greater than 100 µM in the test with OVCAR-8 ovarian; 52.5 µM in the test on NCI-H522 lung; greater than 100 µM in the test on MCF7 breast; greater than 100 µM in the test with UACC-62 melanoma. In addition, in the test with BT-549 breast, the TGI was greater than 100 µM.

Turning to `O=C1c2cc(Cl)ccc2NC(=NCCCl)C2CSCN12` (centres undefined), the TGI in the test on NCI-H226 lung, in the test on UACC-257 melanoma, in the test with OVCAR-8 ovarian, in the test on NCI-H522 lung, in the test on MCF7 breast and in the test on UACC-62 melanoma was greater than 100 µM each time. In the test with BT-549 breast, this compound displayed a TGI greater than 100 µM.
